Structures can show the parent of a compound that is named as a salt.
What was measured:
[1] = system: mienteric plexus of guinea-pig isolated ileum; assay: Inhibition of LTD4-induced contractions in the mienteric plexus of guinea-pig isolated ileum; settings: LTD4 3 nM, compound incubated 2.5 minutes
Description: Inhibition test of the contractions induced by LTD4 in the mienteric plexus of quinea-pig isolated ileum.
The antagonistic activity of the compounds of the present invention in the isolated organ was evaluated as its ability to inhibit the contraction caused by LTD4 in the mienteric plexus of the ileum of Dunkin Hartley male albino guinea-pig, weighing 300-350 g (Cristol J.P. and Sirois P. Res. Commun. Chem. Pathol., 59, 423 (1988)).
The mienteric plexus is extracted from a 2-3 cm segment of the terminal portion of the guinea-pig ileum, previously sacrificed by cervical dislocation. The plexus is put, at a tension of 0.5 g, in a 5 ml organ bath, containing a solution of Tyrode (137 mM NaCl, 2.7 mM KCl, 1.4 mM CaCl2, 0.4 mM NaH2PO4, 11.9 mM NaHCO3, 0.8 mM MgSO4, 5.5 mM glucose), saturated with carbogen gas (95% 02-5% CO2) at 37°C. The solution also contains indomethacin (3.3 µM) and atropine (0.4 µM) to remove the action of the intrinsic prostaglandins and the cholinergic responses.
After a 45 minute stabilization period a maximum isotonic response is obtained (100% contractile response) adding to the bath chamber the LTD4 agonist (3 nM). This process is repeated until the same contraction response is obtained twice. The […] measures are made in an isotonic transducer.
After stabilization is restored, the product under test is incubated at different concentrations (dissolved in 0.1% final concentration DMSO) for 2.5 minutes, and after that the contraction with LTD4 is induced again.
The antagonistic activity is expressed as IC50, the concentration of compound which reduces by 50% the maximum contraction.

[2] = molecular target: T1, LTD4 receptors (Cavia porcellus, UniProt Q2NNR5); assay: [3H]-LTD4 receptor binding inhibition test in guinea-pig lung membranes; settings: 0.5 nM [3H]-LTD4, 30 minutes at 25°C, Cheng-Prusoff
T1 construct: Guinea pig lung membranes, containing the LTD4 receptors; from tissue; host or cells: guinea-pig lung membranes
T1 sequence (Q2NNR5 1-340): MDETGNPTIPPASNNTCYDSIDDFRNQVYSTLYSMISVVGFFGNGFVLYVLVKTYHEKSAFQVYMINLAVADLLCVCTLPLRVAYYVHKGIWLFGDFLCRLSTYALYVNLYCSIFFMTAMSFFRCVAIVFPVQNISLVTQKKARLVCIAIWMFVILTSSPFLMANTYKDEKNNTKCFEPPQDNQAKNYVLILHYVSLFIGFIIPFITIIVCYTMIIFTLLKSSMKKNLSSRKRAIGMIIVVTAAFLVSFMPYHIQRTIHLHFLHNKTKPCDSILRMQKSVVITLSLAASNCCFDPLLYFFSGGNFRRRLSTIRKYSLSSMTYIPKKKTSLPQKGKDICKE
Description: [^3H]-LTD4 receptor binding inhibition test in quinea-pig lung membranes
These purified membranes (150 µg/ml) are added to an incubation mixture containing 10 mM of PIPES buffer (piperazin-N,N'-bis(2-ethanesulfonic acid) (pH 7.4), 10 mM of CaCl2, 10 mM of 5 MgCl2, 2 mM of cysteine, 2 mM of glycine, 0.5 nM of [^3H]-LTD4 (4700-6400 GBq/mmol) and different concentrations of the product under test in a final volume of 310 µl. The reaction mixture is incubated for 30 minutes at 25°C.
The radioligand bound to the membranes is separated from the free one by dilution with 4 ml washing buffer (10 mM Tris-HCl (pH 7.4) and 100 mM NaCl) at 0°C and filtration with Whatman GF/B filters, by means of a Brandel Cell Harvester. The filters are washed 4 times with a total volume of 16 ml of washing buffer at 0°C. The radioactivity present in the filters is determined by liquid scintillation.
The specific binding is defined as the difference between the total binding of [^3H]-LTD4 and the nonspecific binding determined in the presence of 1 µM LTD4.

SMILES: O=C(O)CCCc1ccc(NC(=O)c2ccc3ccc(OCc4ccc5ccccc5n4)cc3c2)cc1 [Example 26, 4-[4-[[7-(2-quinolinylmethoxy)-2-naphthyl]carboxamido]phenyl]butanoic acid]
- IC50 [1]: 38 nM

SMILES: CC(C(=O)NCc1ccccc1-c1nnn[nH]1)c1ccc2cc(OCc3ccc4ccccc4n3)ccc2c1 (centres unmarked) [Example 3, N-[2-(1H-5-tetrazolyl)phenylmethyl]-2-[6-(2-quinolinylmethoxy)-2-naphthyl]propanamide]
- IC50 [1]: 18 nM
- Ki [2]: 12 ± 3 nM

SMILES: O=C(O)c1ccc(CCNC(=O)c2ccc3ccc(OCc4ccc5ccccc5n4)cc3c2)cc1 [Example 29, 4-[2-[[7-(2-quinolinylmethoxy)-2-naphthyl]carboxamido]ethyl]benzoic acid]
- IC50 [1]: 8 nM
- Ki [2]: 1 ± 0.1 nM

SMILES: O=C(Cc1ccc2cc(OCc3ccc4ccccc4n3)ccc2c1)NCc1ccc(-c2nnn[nH]2)cc1 [Example 21, N-[4-(1H-5-tetrazolyl)phenylmethyl]-6-(2-quinolinylmethoxy)-2-naphthaleneacetamide]
- IC50 [1]: 6 nM
- Ki [2]: 5.5 ± 0.5 nM

SMILES: O=C(O)CCCc1ccc(C(=O)NCc2ccc3cc(OCc4ccc5ccccc5n4)ccc3c2)cc1 [Example 32, 4-[4-[[6-(2-quinolinylmethoxy)-2-naphthyl]methylaminocarbonyl]phenyl]butanoic acid]
- Ki [2]: 44 ± 15 nM

SMILES: CC(C(=O)Nc1ccc(CCCC(=O)O)cc1)c1ccc2cc(OCc3ccc4ccccc4n3)ccc2c1 (centres unmarked) [Example 10, 4-[4-[2-[6-(2-quinolinylmethoxy)-2-naphthyl]propanamido]phenyl]butanoic acid]
- IC50 [1]: > 100 nM
- Ki [2]: 38.5 ± 6.3 nM

SMILES: O=C(NCCCc1ccc(-c2nnn[nH]2)cc1)c1ccc2ccc(OCc3ccc4ccccc4n3)cc2c1 [Example 33, N-[4-(1H-5-tetrazolyl)phenylpropyl]-7-(2-quinolinylmethoxy)-2-naphthalenecarboxamide]
- IC50 [1]: 87 nM
- Ki [2]: 13.1 ± 2 nM

SMILES: CC(C(=O)Nc1ccc(Cc2nnn[nH]2)cc1)c1ccc2cc(OCc3ccc4ccccc4n3)ccc2c1 (centres unmarked) [Example 5, N-[4-(1H-5-tetrazolyl)methylphenyl]-2-[6-(2-quinolinylmethoxy)-2-naphthyl]propanamide]
- IC50 [1]: > 100 nM
- Ki [2]: 34 ± 5 nM

SMILES: CC(C(=O)Nc1ccc(CCCC(=O)O)cc1)c1ccc2cc(OCc3ccc4ccc(Cl)cc4n3)ccc2c1 (centres unmarked) [Example 20, 4-[4-[2-[6-[(7-chloro-2-quinolinyl)-methoxy]-2-naphthyl]propanamido]phenyl]butanoic acid]
- Ki [2]: 190 ± 21 nM

SMILES: CC(C(=O)Nc1ccc(Cc2nn[nH]n2)cc1)c1ccc2cc(OCc3ccc4ccccc4n3)ccc2c1 (centres unmarked) [Example 6, N-[4-(1H-5-tetrazolyl)methylphenyl]-2-[6-(2-quinolinylmethoxy)-2-naphthyl]propanamide (sodium salt)]
- IC50 [1]: > 100 nM
- Ki [2]: 32.7 ± 3 nM

SMILES: CC(C(=O)NCc1cccc(C(=O)O)c1)c1ccc2cc(OCc3ccc4ccccc4n3)ccc2c1 (centres unmarked) [Example 14, 3-[2-[6-(2-quinolinylmethoxy)-2-naphthyl]propanamidomethyl]benzoic acid]
- IC50 [1]: 75 nM
- Ki [2]: 68 ± 5 nM

SMILES: CC(C(=O)NCc1ccc(-c2nnn[nH]2)cc1)c1ccc2cc(OCc3ccc4ccccc4n3)ccc2c1 (centres unmarked) [Example 1, N-[4-(1H-5-tetrazolyl)phenylmethyl]-2-[6-(2-quinolinylmethoxy)-2-naphthyl]propanamide]
- IC50 [1]: 13 nM

SMILES: CC(C(=O)NCc1cccc(-c2nnn[nH]2)c1)c1ccc2cc(OCc3ccc4ccccc4n3)ccc2c1 (centres unmarked) [Example 2, N-[3-(1H-5-tetrazolyl)phenylmethyl]-2[6-(2-quinolinylmethoxy)-2-naphthyl]propanamide]
- IC50 [1]: 66 nM
- Ki [2]: 29.5 ± 3 nM

SMILES: O=C(O)CCCc1ccc(NC(=O)c2ccc3cc(OCc4ccc5ccccc5n4)ccc3c2)cc1 [Example 23, 4-[4-[[6-(2-quinolinylmethoxy)-2-naphthyl]carboxamido]phenyl]butanoic acid]
- IC50 [1]: > 100 nM
- Ki [2]: 30 ± 1.2 nM

SMILES: O=C(NCc1ccc(-c2nnn[nH]2)cc1)c1ccc2ccc(OCc3ccc4ccccc4n3)cc2c1 [Example 27, N-[4-(1H-5-tetrazolyl)phenylmethyl]-7-(2-quinolinylmethoxy)-2-naphthalenecarboxamide]
- IC50 [1]: 28 nM
- Ki [2]: 7.8 ± 2 nM

SMILES: CC(C(=O)Nc1cccc(CC(=O)O)c1)c1ccc2cc(OCc3ccc4ccccc4n3)ccc2c1 (centres unmarked) [Example 18, 3-[2-[6-(2-Quinolinylmethoxy)-2-naphthyl]propanamido]phenylacetic acid]
- Ki [2]: 134 ± 18 nM

SMILES: O=C(NCc1cccc(-c2nnn[nH]2)c1)c1ccc2cc(OCc3ccc4ccccc4n3)ccc2c1 [Example 24, N-[3-(1H-5-tetrazolyl)phenylmethyl]-6-(2-quinolinylmethoxy)-2-naphthalenecarboxamide]
- Ki [2]: 28 ± 3 nM

SMILES: O=C(NCCc1ccc(-c2nnn[nH]2)cc1)c1ccc2ccc(OCc3ccc4ccccc4n3)cc2c1 [Example 30, N-[4-(1H-5-tetrazolyl)phenylethyl]-7-(2-quinolinylmethoxy)-2-naphthalenecarboxamide]
- IC50 [1]: 24 nM

From patent EP0775133B1, “NAPHTHALENE AMIDES HAVING LEUKOTRIENE-ANTAGONISTIC ACTION” (LABORATORIOS MENARINI S.A., priority 1994, dated 1996)
